Measured values from PubChem BioAssay AID328 (DTP/NCI, 2004).
Where “and” joins values, the source holds several entries; their conditions need not be identical. Equal values may be shown once. Toxic doses and inconclusive results are not listed.

Tested on: BDF1 mice, P388 leukemia ip, median survival T/C
Assay: NCI In Vivo Anticancer Drug Screen. Data for tumor model P388 Leukemia (intraperitoneal) in B6D2F1 (BDF1) mice
Conditions: endpoint: median survival time, higher = longer survival
In short: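 T/C = treated-group survival ÷ vehicle-control survival; tumour transplanted into mice before dosing.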

[1] = dose: 100.0 mg/kg/injection, schedule: Q04DX003 (ip), vehicle: saline with Tween-80
[2] = dose: 200.0 mg/kg/injection, schedule: Q04DX003 (ip), vehicle: saline with Tween-80
[3] = dose: 400.0 mg/kg/injection, schedule: Q04DX003 (ip), vehicle: saline with Tween-80
[4] = dose: 12.5 mg/kg/injection, schedule: Q01DX009 (ip), vehicle: saline with Tween-80
[5] = dose: 100.0 mg/kg/injection, schedule: Q01DX009 (ip), vehicle: saline with Tween-80
[6] = dose: 200.0 mg/kg/injection, schedule: Q01DX009 (ip), vehicle: saline with Tween-80
[7] = dose: 400.0 mg/kg/injection, schedule: Q01DX009 (ip), vehicle: saline with Tween-80
[8] = dose: 100.0 mg/kg/injection, schedule: Q04DX003 (ip), vehicle: saline

## C/C(=C\C(=O)O)CC(=O)O
dose: 25.0 mg/kg/injection, schedule: Q01DX009 (ip), vehicle: water
  T/C: 109 % of control
dose: 50.0 mg/kg/injection, schedule: Q01DX009 (ip), vehicle: water
  T/C: 95 % of control
dose: 50.0 mg/kg/injection, schedule: Q04DX003 (ip), vehicle: water
  T/C: 92 % of control
dose: 100.0 mg/kg/injection, schedule: Q01DX009 (ip), vehicle: water
  T/C: 99 % of control
dose: 100.0 mg/kg/injection, schedule: Q04DX003 (ip), vehicle: water
  T/C: 99 % of control and 108 % of control
dose: 200.0 mg/kg/injection, schedule: Q01DX009 (ip), vehicle: water
  T/C: 101 % of control
dose: 200.0 mg/kg/injection, schedule: Q04DX003 (ip), vehicle: water
  T/C: 104 % of control and 110 % of control

## Nc1ccc(/C=C\c2nccc3ccccc23)cc1
dose: 0.39 mg/kg/injection, schedule: Q01DX009 (ip), vehicle: saline with Tween-80
  T/C: 114 % of control
dose: 0.78 mg/kg/injection, schedule: Q01DX009 (ip), vehicle: saline with Tween-80
  T/C: 107 % of control
dose: 0.78 mg/kg/injection, schedule: Q01DX009 (ip), vehicle: saline
  T/C: 123 % of control
dose: 1.56 mg/kg/injection, schedule: Q01DX009 (ip), vehicle: saline
  T/C: 123 % of control
dose: 3.13 mg/kg/injection, schedule: Q01DX009 (ip), vehicle: saline with Tween-80
  T/C: 89 % of control
dose: 3.13 mg/kg/injection, schedule: Q01DX009 (ip), vehicle: saline
  T/C: 113 % of control

## [N-]=[N+]=C1C=C(c2ccccc2)N=C1c1ccccc1
dose: 50.0 mg/kg/injection, schedule: Q01DX009 (ip), vehicle: saline
  T/C: 109 % of control
dose: 100.0 mg/kg/injection, schedule: Q01DX009 (ip), vehicle: saline
  T/C: 88 % of control

## CCCCCCCC(=O)Nc1c(C)cccc1C
[1]
  T/C: 100 % of control
[2]
  T/C: 100 % of control
[3]
  T/C: 95 % of control

## Cc1c2oc3c(C)ccc(C(=O)NC4C(=O)NC(C(C)C)C(=O)N5CCCC5C(=O)N(C)CC(=O)N(C)C(C(C)C)C(=O)OC4C)c3nc-2c(C(=O)NC2C(=O)NC(C(C)C)C(=O)N3CCCC3C(=O)N(C)CC(=O)N(C)C(C(C)C)C(=O)OC2C)cc1=O (configuration not stated)
dose: 0.24 mg/kg/injection, schedule: Q01DX009 (ip), vehicle: saline + alcohol
  T/C: 97 % of control
dose: 0.34 mg/kg/injection, schedule: Q01DX009 (ip), vehicle: saline + alcohol
  T/C: 101 % of control
dose: 0.49 mg/kg/injection, schedule: Q01DX009 (ip), vehicle: saline + alcohol
  T/C: 100 % of control
dose: 0.7 mg/kg/injection, schedule: Q01DX009 (ip), vehicle: saline + alcohol
  T/C: 112 % of control
dose: 1.0 mg/kg/injection, schedule: Q01DX009 (ip), vehicle: saline + alcohol
  T/C: 106 % of control
dose: 1.17 mg/kg/injection, schedule: Q04DX003 (ip), vehicle: saline + alcohol
  T/C: 107 % of control and 124 % of control
dose: 1.7 mg/kg/injection, schedule: Q04DX003 (ip), vehicle: saline + alcohol
  T/C: 104 % of control
dose: 1.94 mg/kg/injection, schedule: Q04DX003 (ip), vehicle: saline + alcohol
  T/C: 107 % of control
dose: 2.4 mg/kg/injection, schedule: Q01DX001 (ip), vehicle: saline + alcohol
  T/C: 112 % of control
dose: 3.4 mg/kg/injection, schedule: Q01DX001 (ip), vehicle: saline + alcohol
  T/C: 113 % of control
dose: 4.9 mg/kg/injection, schedule: Q04DX003 (ip), vehicle: saline + alcohol
  T/C: 150 % of control
dose: 5.4 mg/kg/injection, schedule: Q04DX003 (ip), vehicle: saline + alcohol
  T/C: 168 % of control
dose: 7.0 mg/kg/injection, schedule: Q04DX003 (ip), vehicle: saline + alcohol
  T/C: 169 % of control
dose: 9.0 mg/kg/injection, schedule: Q04DX003 (ip), vehicle: saline + alcohol
  T/C: 159 % of control and 176 % of control
dose: 10.0 mg/kg/injection, schedule: Q01DX001 (ip), vehicle: saline + alcohol
  T/C: 153 % of control
dose: 15.0 mg/kg/injection, schedule: Q04DX003 (ip), vehicle: saline + alcohol
  T/C: 183 % of control and 193 % of control

## Nc1ccc(C(OC(=O)c2cc3ccccc3c(Cc3c(O)c(C(=O)OC(c4ccc(N)cc4)(c4ccc(N)cc4)c4ccc(N)cc4)cc4ccccc34)c2O)(c2ccc(N)cc2)c2ccc(N)cc2)cc1
[4]
  T/C: 150 % of control

## CC(/C=N\N=C(N)N)=N/N=C(N)N
dose: 5.0 mg/kg/injection, schedule: Q01DX010 (ip), vehicle: saline
  T/C: 90 % of control
dose: 10.0 mg/kg/injection, schedule: Q01DX010 (ip), vehicle: saline
  T/C: 90 % of control and 100 % of control
dose: 20.0 mg/kg/injection, schedule: Q01DX010 (ip), vehicle: saline
  T/C: 100 % of control
dose: 44.0 mg/kg/injection, schedule: Q01DX009 (ip), vehicle: saline
  T/C: 150 % of control
dose: 400.0 mg/kg/injection, schedule: Q04DX003 (ip), vehicle: saline
  T/C: 95 % of control

## CSCSCC(NS(=O)(=O)c1ccc(C)cc1)C(=O)O (configuration not stated)
[1]
  T/C: 104 % of control
[2]
  T/C: 109 % of control
[3]
  T/C: 100 % of control

## O=C(Cn1ccc(O)cc1=O)c1ccc(Cl)s1
[5]
  T/C: 98 % of control
[6]
  T/C: 93 % of control
[7]
  T/C: 104 % of control

## CCCCCCCCCCCCCCCC[N+](C)(C)C(C)c1ccc(OC)cc1 (configuration not stated)
dose: 6.25 mg/kg/injection, schedule: Q04DX003 (ip), vehicle: saline with Tween-80
  T/C: 123 % of control

## O=P(NC12CC3CC(CC(C3)C1)C2)(N1CC1)N1CC1
dose: 2.2 mg/kg/injection, schedule: Q01DX009 (ip), vehicle: Klucel (hydroxypropylcellulose) (HPC)
  T/C: 120 % of control
dose: 4.4 mg/kg/injection, schedule: Q01DX009 (ip), vehicle: Klucel (hydroxypropylcellulose) (HPC)
  T/C: 183 % of control
dose: 6.6 mg/kg/injection, schedule: Q01DX009 (ip), vehicle: Klucel (hydroxypropylcellulose) (HPC)
  T/C: 238 % of control and 154 % of control and 211 % of control
dose: 10.0 mg/kg/injection, schedule: Q01DX009 (ip), vehicle: Klucel (hydroxypropylcellulose) (HPC)
  T/C: 244 % of control and 88 % of control and 122 % of control
dose: 15.0 mg/kg/injection, schedule: Q01DX009 (ip), vehicle: Klucel (hydroxypropylcellulose) (HPC)
  T/C: 105 % of control

## O=Cc1c2c(c(C=O)c3c1OCO3)OCO2
dose: 100.0 mg/kg/injection, schedule: Q01DX001 (ip), vehicle: saline with Tween-80
  T/C: 97 % of control
dose: 200.0 mg/kg/injection, schedule: Q01DX001 (ip), vehicle: saline with Tween-80
  T/C: 97 % of control
dose: 400.0 mg/kg/injection, schedule: Q01DX001 (ip), vehicle: saline with Tween-80
  T/C: 90 % of control

## O=C(O)c1ccc(C(=O)O)c(C(=O)O)c1.[NH-]C1CCCCC1[NH-].[Pt+2]
dose: 30.0 mg/kg/injection, schedule: Q01DX001 (ip), vehicle: sodium bicarbonate
  T/C: 164 % of control
dose: 50.0 mg/kg/injection, schedule: Q01DX001 (ip), vehicle: sodium bicarbonate
  T/C: 162 % of control

## CCC1COC(=O)N1 (configuration not stated)
dose: 25.0 mg/kg/injection, schedule: Q04DX003 (ip), vehicle: saline
  T/C: 109 % of control
dose: 50.0 mg/kg/injection, schedule: Q04DX003 (ip), vehicle: saline
  T/C: 104 % of control
[8]
  T/C: 95 % of control

## C[C@]12C=CC(=O)C[C@@H]1CC[C@@H]1[C@@H]2C(=O)C[C@]2(C)C(=O)CC[C@@H]12
[5]
  T/C: 100 % of control
[6]
  T/C: 100 % of control
[7]
  T/C: 109 % of control

## CCCCOCN(COCCCC)c1ncccn1
dose: 50.0 mg/kg/injection, schedule: Q01DX009 (ip), vehicle: saline with Tween-80
  T/C: 108 % of control
[5]
  T/C: 106 % of control
[6]
  T/C: 104 % of control

## C1CN2CCC1CC2
[4]
  T/C: 107 % of control
dose: 22.0 mg/kg/injection, schedule: Q01DX009 (ip), vehicle: saline with Tween-80
  T/C: 101 % of control
dose: 25.0 mg/kg/injection, schedule: Q01DX009 (ip), vehicle: saline with Tween-80
  T/C: 119 % of control
dose: 33.0 mg/kg/injection, schedule: Q01DX009 (ip), vehicle: saline with Tween-80
  T/C: 122 % of control

## Cc1ccc(C)c(N2CCN(c3ccncc3N)CC2)c1
dose: 37.5 mg/kg/injection, schedule: Q04DX003 (ip), vehicle: saline with Tween-80
  T/C: 113 % of control
dose: 75.0 mg/kg/injection, schedule: Q04DX003 (ip), vehicle: saline with Tween-80
  T/C: 122 % of control
dose: 150.0 mg/kg/injection, schedule: Q04DX003 (ip), vehicle: saline with Tween-80
  T/C: 118 % of control

## COC(=O)CN(c1c(C)cc(C)c(N)c1C)S(=O)(=O)c1ccccc1
dose: 100.0 mg/kg/injection, schedule: Q01DX001 (ip), vehicle: Klucel (hydroxypropylcellulose) (HPC)
  T/C: 91 % of control
dose: 400.0 mg/kg/injection, schedule: Q01DX001 (ip), vehicle: Klucel (hydroxypropylcellulose) (HPC)
  T/C: 100 % of control

## CC(=O)c1cccc(OCC(O)CN(C(C)C)C(C)C)c1 (configuration not stated)
[8]
  T/C: 104 % of control
dose: 200.0 mg/kg/injection, schedule: Q04DX003 (ip), vehicle: saline
  T/C: 109 % of control
